These results are taken from ChEMBL document CHEMBL1201862, “PubChem BioAssay data set” (2004).

SMILES strings stand for the structures. Active and inactive are the calls of the source.

The target in assay [1] is T1, Insulin-degrading enzyme (Homo sapiens, UniProt P14735).
T1 sequence (P14735 whole entry): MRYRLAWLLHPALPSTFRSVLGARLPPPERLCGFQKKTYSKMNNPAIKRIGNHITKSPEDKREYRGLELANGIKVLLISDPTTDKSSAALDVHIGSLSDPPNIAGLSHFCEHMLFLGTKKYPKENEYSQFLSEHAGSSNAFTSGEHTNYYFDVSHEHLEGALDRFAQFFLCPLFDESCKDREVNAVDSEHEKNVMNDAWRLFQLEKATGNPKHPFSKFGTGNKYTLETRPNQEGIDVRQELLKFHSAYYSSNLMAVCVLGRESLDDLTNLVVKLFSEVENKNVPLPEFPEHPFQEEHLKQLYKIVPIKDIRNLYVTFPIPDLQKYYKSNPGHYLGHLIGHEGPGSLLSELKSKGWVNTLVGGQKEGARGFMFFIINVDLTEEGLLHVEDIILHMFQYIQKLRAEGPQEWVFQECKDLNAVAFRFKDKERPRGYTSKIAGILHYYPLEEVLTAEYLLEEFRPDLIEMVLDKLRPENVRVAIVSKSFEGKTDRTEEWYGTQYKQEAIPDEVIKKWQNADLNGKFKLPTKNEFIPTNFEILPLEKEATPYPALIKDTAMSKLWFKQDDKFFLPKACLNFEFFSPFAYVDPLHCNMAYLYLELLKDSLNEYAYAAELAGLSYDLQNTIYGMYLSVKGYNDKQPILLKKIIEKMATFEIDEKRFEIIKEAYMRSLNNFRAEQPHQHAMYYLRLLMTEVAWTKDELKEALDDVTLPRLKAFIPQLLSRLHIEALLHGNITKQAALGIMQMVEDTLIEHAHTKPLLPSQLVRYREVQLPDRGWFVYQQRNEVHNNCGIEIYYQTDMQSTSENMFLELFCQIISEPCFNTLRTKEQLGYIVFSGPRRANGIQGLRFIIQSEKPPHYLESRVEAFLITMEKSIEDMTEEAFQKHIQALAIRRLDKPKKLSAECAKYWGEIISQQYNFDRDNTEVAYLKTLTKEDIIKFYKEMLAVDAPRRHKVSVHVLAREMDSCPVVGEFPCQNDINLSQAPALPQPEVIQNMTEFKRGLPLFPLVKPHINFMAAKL
In words: recombinant IDE activation, cell-free – biochemical, fluorescence polarization, counter-screen for IDE activator project, dose response (AID 588681). (In general: Polarisation of emitted light reports the rotation of a fluorescent probe.)

The target of assay [2] is T1, Insulin-degrading enzyme. In words: cellular IDE activation of Abeta substrate cleavage – fluorescence polarization, HEK cells, dose response (AID 588439). Format: functional, cell-based.
In assay [3] the test system is HEK293. In words: membrane integrity loss in HEK cells – cell-based, fluorescence, cytotoxicity control for IDE activator project, dose response (AID 588440).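 Further: cytotoxicity by LDH release measuring loss of membrane integrity.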 Format: functional. Particulars: Homo sapiens.
Assay [4] concerns HEK293. Kind of assay: optical interference in Abeta FP readout, dose response, artefact control for IDE activator project, biochemical, fluorescence polarization (AID 588442). Particulars: Homo sapiens. Format: functional, cell-based.
A short description of assay [5]: A Cell Based Secondary Assay To Explore Cytotoxicity of Compounds that Sensitize Mycobacterium Tuberculosis to Beta-Lactam Antibiotics. The format is functional.
Assay [6] deals with Luciferin 4-monooxygenase (Photinus pyralis, UniProt P08659). Kind of assay: inhibition of purified Photinus pyralis luciferase – biochemical, luminescence, dose response (AID 1891).
Assay [7] is described as follows: Luminescence Cell-Based Dose Confirmation HTS to Identify Inhibitors of Platelet Dense Granule Release. [Related pubchem assays: 1663 (Primary HTS), 1678 (Summary of Project)]. Format: functional.
Assay [8] has as its target T2, Apoptotic protease-activating factor 1 (Homo sapiens, UniProt O14727).
T2 sequence (O14727 whole entry): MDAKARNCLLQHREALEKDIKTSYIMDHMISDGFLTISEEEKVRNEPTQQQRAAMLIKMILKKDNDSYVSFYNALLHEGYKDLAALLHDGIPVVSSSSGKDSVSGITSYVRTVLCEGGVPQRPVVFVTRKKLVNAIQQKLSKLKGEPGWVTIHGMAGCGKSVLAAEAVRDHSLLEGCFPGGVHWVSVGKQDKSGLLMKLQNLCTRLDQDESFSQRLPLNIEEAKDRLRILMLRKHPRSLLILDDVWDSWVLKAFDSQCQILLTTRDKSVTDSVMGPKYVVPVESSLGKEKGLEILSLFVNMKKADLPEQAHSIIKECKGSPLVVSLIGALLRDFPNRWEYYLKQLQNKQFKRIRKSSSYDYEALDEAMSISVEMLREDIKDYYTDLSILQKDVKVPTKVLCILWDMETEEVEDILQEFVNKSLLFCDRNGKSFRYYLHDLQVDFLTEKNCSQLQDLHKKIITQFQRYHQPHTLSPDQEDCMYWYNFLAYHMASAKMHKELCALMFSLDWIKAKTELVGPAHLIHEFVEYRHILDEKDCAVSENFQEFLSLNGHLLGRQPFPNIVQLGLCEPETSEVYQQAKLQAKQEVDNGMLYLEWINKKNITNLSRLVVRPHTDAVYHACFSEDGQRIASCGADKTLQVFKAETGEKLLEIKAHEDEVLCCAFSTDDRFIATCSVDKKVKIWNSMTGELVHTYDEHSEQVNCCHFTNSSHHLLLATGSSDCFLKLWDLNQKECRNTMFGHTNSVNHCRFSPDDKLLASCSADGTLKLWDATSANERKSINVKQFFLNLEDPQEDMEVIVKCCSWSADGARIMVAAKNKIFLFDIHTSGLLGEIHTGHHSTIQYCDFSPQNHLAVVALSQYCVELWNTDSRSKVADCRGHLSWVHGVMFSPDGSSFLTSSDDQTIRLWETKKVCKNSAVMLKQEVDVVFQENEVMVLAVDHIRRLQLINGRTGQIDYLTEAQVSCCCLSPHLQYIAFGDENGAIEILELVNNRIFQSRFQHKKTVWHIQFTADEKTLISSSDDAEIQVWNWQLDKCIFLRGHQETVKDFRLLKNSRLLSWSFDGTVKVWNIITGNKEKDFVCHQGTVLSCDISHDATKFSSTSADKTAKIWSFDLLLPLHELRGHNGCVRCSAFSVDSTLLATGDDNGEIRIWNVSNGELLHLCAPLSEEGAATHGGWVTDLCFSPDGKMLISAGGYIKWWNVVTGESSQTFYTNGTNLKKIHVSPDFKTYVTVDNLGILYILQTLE
Format: functional.

Assay [9] is described as follows: Luminescence Cell-Based Dose Confirmation HTS to Identify Activators of 5'UTR Stem-Loop Driven Alpha-Synuclein mRNA Translation in H4 Neuroglioblastoma Cells. [Related pubchem assays: 1829 (Project Summary), 1814 (Primary HTS)]. Format: functional.
Assay [10] in a line: Luminescence Cell-Based Dose Response HTS to Identify Activators of Luciferase Translation or Activity in H4 […] Cells. [Related pubchem assays: 1829 (Project Summary), 1814 (Primary HTS)]. Format: functional.
Assay [11] concerns BJ. In words: BJ-TERT fibroblast viability loss – cell-based, RAS-independent, luminescence, dose response (AID 1933). The format is functional. The conditions noted are these: Homo sapiens.
For a further assay, the system named is H4. In words: Luminescence Cell-Based Dose Response HTS to Identify Activators of 5'UTR Stem-Loop Driven Prion Protein mRNA Translation in H4 Neuroglioblastoma Cells. [Related pubchem assays: 1829 (Project Summary), 1814 (Primary HTS)]. Particulars: Homo sapiens. The format is functional.
Assay [12] relates to BJ. In words: cells. Format: functional, cell-based. The conditions noted are these: Homo sapiens.
Assay [13] concerns BJ. In words: BJ-TERT-LT-ST fibroblast viability loss – cell-based, RAS-independent, luminescence, dose response (AID 1935).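 Further: BJ fibroblasts immortalized with TERT plus LT and ST oncogenes.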 The format is functional. Particulars: Homo sapiens.
Assay [14] can be described thus: DRD fibroblast viability loss – cell-based, non-viral oncogenic, luminescence, dose response (AID 1934). The format is functional. The conditions noted are these: Homo sapiens.
In assay [15] the test system is BJ. Kind of assay: growth inhibition of engineered Ras-driven BJ cells – cell-based, alamar blue fluorescence, cherrypicked samples, dose response (AID 2631).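 Further: confirmatory dose-response assay in RAS-dependent BJ fibroblasts engineered with TERT, LT and ST, with cytotoxicity read by fluorescence.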 The format is functional. The conditions noted are these: Homo sapiens.
A further assay relates to Vero. Kind of assay: cells. Format: functional. Particulars: Chlorocebus sabaeus.
A short description of assay [16]: NIH-3T3 fibroblast cytotoxicity, dose response, cytotoxicity control, cell-based, fluorescence, Alamar Blue, secondary assay (AID 2327).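 Further: NIH-3T3 mouse fibroblasts cultured with fluconazole at 8 µg/mL.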 The format is functional.
The nature of assay [17]: fluconazole-exposed Candida albicans growth modulators – fluorescence, retest, confirmation (AID 2467). Format: functional, cell-based.
The nature of assay [18]: Luminescence Cell-Based Dose Retest to Confirm Inhibitors of Cancer Stem Cells. [Related pubchem assays (depositor defined):AID2717, AID2721]. The format is functional. Particulars: Homo sapiens.
In another assay the test system is Jurkat. Kind of assay: blockers of NF-kB activation in T cells – Jurkat, luciferase reporter, luminescence, B- and T-cell, dose response (AID 489004).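 Further: NF-kB luciferase reporter Jurkat cells stimulated with PMA plus ionomycin.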 Format: functional, cell-based. Particulars: Homo sapiens.
The target in assay [19] is T3, Ubiquitin-conjugating enzyme E2 N (Homo sapiens, UniProt P61088).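 Further: Dose-response confirmation in a TR-FRET assay detecting UBC13-driven polyubiquitin chain formation, inhibition measured.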
T3 sequence (P61088 whole entry): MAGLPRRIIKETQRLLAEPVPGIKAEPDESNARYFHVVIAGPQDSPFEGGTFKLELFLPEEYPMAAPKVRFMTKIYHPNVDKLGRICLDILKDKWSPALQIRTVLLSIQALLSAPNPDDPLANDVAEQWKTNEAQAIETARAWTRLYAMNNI
The format is functional.

The nature of assay [20]: HEK-293T viability loss, compound-treated – cell-based, uHTS hits, cytotoxicity control for B/T-cell NF-kB inhibitor project, dose response (AID 489019).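 Further: IC50 reflects cytotoxicity as loss of cell viability.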 Format: functional.
The subject of the next assay is INS1. In words: INS-1E survival protection against cytokine death – cell-based, luminescence, retest, dose response (AID 449756).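 Further: cell death triggered by IL-1 beta plus TNF-alpha plus IFN-gamma mixture; protective hits raise ATP signal compared with cytokine alone wells.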 Format: functional. Particulars: Rattus norvegicus.
Assay [21] has as its target T4, DNA repair protein RAD52 homolog (Homo sapiens, UniProt P43351).
T4 sequence (P43351 whole entry): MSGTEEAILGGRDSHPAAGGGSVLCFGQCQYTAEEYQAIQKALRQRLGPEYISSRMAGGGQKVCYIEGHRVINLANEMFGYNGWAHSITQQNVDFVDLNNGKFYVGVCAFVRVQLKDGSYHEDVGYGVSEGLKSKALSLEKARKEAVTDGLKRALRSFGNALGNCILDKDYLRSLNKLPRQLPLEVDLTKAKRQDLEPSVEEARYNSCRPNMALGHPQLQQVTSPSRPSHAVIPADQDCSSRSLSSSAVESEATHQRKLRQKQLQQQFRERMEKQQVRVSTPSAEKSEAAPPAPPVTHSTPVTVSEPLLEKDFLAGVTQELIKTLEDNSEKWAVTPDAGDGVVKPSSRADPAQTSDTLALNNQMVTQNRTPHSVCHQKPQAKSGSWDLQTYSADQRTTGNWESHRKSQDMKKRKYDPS
Format: functional, biochemical.

Chain of Luciferin 4-monooxygenase (P08659 whole entry): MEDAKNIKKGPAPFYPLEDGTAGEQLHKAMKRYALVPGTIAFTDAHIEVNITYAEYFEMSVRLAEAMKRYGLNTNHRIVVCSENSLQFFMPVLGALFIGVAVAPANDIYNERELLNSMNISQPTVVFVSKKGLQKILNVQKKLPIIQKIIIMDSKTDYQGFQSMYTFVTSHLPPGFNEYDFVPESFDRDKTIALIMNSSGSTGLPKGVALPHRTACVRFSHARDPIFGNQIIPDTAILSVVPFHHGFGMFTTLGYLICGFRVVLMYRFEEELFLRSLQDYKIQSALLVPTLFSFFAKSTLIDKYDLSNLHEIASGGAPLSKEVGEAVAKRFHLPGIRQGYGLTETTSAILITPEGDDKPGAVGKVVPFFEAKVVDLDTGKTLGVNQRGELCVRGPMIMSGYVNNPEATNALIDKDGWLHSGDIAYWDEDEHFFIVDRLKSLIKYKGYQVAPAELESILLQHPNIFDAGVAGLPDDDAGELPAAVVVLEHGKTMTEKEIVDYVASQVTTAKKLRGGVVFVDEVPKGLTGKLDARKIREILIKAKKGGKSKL

As usually defined, the EC50 is the concentration giving half of the maximal effect. What is called IC50 is the concentration needed to halve the response being measured. `CC(=O)Nc1ccc(NC(=O)COC(=O)c2[nH]nc3ccccc23)cc1`: the EC50 at Insulin-degrading enzyme [1], on Insulin-degrading enzyme [2] and in the assay on HEK293 [4] was > 54.7 µM (inactive) throughout. Besides, in the assay with HEK293 [3], the IC50 is > 89.2 µM (inactive).

What is called CC50 is the concentration at which the toxic effect on the cells reaches its halfway point. For the compound `O=C1N/C(=C\c2ccc(O)cc2)C(=O)c2ccccc21`, the CC50 in assay [5] is > 40 µM (active). Besides, the values for the EC50 in [6] and in [7] were 0.661 µM (active) and 1.15 µM (active), respectively. Moreover, the IC50 in [8] is 3.21 µM (active).

Take `CN1CCN(C(=O)CCCN2C(=O)/C(=C/c3cccc(Br)c3)SC2=S)CC1`: the EC50 in assay [9] was 13.9 µM (active); in assay [10] it was > 120 µM (not active); with BJ [11], 1.93 µM (active); in the assay on H4 it was > 120 µM (not active); in the assay with BJ [12], > 150 µM (inconclusive); in the assay on BJ [13] it was > 150 µM (inconclusive). Moreover, the 50% effective concentration (EC50) is 4.36 µM (active) in assay [14] and > 66.7 µM (inactive) with BJ [15]. Moreover, the CC50 in the assay on Vero is > 25 µM (active).

In general, AC50 refers to the concentration at which the activity in the assay is half-maximal. As for `CCCCCc1ccc(OCCCC[n+]2cccc(C)c2)c(CCCCC)c1`, the EC50 in assay [16] is > 150 µM (inactive); in [17] it was 0.755 µM (active). The figures for the half-maximal activity concentration (AC50) (in assay [18]; with INS1; in [21]) were 0.694 µM (active), 1.64 µM (active) and 15.1 µM (active), respectively. In addition, the IC50 with Jurkat is 4.68 µM (active); in [19] it was > 20 µM (inactive); in assay [20], 68.8 µM (inactive); in assay [8] it was 28.5 µM (active).
